Test: Antagonist activity at Escherichia coli UT189 FimH in guinea pig red blood cells assessed as disaggregation of bacteria after 600 secs by aggregometry assay

Compound | IC50
O=C(O)c1ccc(-c2ccc(O[C@H]3O[C@H](CO)[C@@H](O)[C@H](O)[C@@H]3O)cc2)cc1 | 45 µM
COC(=O)c1ccc(-c2ccc(O[C@H]3O[C@H](CO)[C@@H](O)[C@H](O)[C@@H]3O)cc2Cl)cc1 | 41 µM
O=C(O)c1ccc(-c2ccc(O[C@H]3O[C@H](CO)[C@@H](O)[C@H](O)[C@@H]3O)cc2Cl)cc1 | 17 µM
O=C(O)c1ccc(-c2ccc(O[C@H]3O[C@H](CO)[C@@H](O)[C@H](O)[C@@H]3O)c(Cl)c2)cc1 | 10 µM
COC(=O)c1ccc(-c2cc(Cl)c(O[C@H]3O[C@H](CO)[C@@H](O)[C@H](O)[C@@H]3O)c(Cl)c2)cc1 | 14 µM
O=C(O)c1ccc(-c2cccc(O[C@H]3O[C@H](CO)[C@@H](O)[C@H](O)[C@@H]3O)c2)cc1 | 45 µM
COC(=O)c1ccc(-c2ccc(O[C@H]3O[C@H](CO)[C@@H](O)[C@H](O)[C@@H]3O)c(Cl)c2)cc1 | 9 µM
COC(=O)c1ccc(-c2ccc(Cl)c(O[C@H]3O[C@H](CO)[C@@H](O)[C@H](O)[C@@H]3O)c2)cc1 | 31 µM

— BindingDB's records for doi:10.1021/jm101011y (University of Basel, 2010)
